As usually defined, the IC50 is the point on the concentration scale where inhibition reaches its midpoint. Lower therefore signals inhibition by little substance.

Where only a bound is given, the exact number is not on record here.

Four molecules from US11795195B2, “Antibody-drug conjugates including hemiasterlin derivative” (Sumitomo Pharma Co., Ltd., priority 2017, dated 2023) can be followed below.

Series [1] has as its system Karpas-299 cells. Kind of series: Cellular Toxicity Test (1), CellTiter-Glo cell viability. The note with it: for IC50: Homo sapiens, 96 h, cultured 4 days, cell viability. It is filed as cell-based, human. As for the experimental part:
Karpas-299 cells (European Collection of Authenticated Cell Cultures, hereinafter, ECACC), which are human lymphoma cell lines, were cultured in RPMI 1640 (GIBCO) containing 10% fetal bovine serum (MP Biomedicals) (hereinafter, referred to as the “culture medium”). Cells were prepared to be 2×10^6 cells/mL in the culture medium, and were added to a 96 well microplate for cell culturing in an amount of 50 μL for each well. Compounds of Examples or Comparative Example compound 4 times diluted with the culture medium in 8 stages were added to the microplate in an amount of 50 μL for each well. These were cultured at 37 degree under 5% CO2 for 4 days. After culturing, the microplate was taken out from the incubator, and was left at rest at room temperature for 10 minutes. To each well, 50 μL of CellTiter-Glo Luminescent Cell Viability Assay (Promega) was added, and the resultant mixture was stirred. This mixture was incubated at a dark place for 20 minutes. Using a microplate luminometer, luminescence at each well was measured, thereby calculating the cell viability. In addition, from the value of cell viability, the IC50 value was calculated.
The IC50 value was calculated by the following formula: IC50 (nM)=antilog(LOG10(a/b)×(e−d)/(c−d)+LOG10b) a: concentration a of test substance b: concentration b of test substance c: cell viability upon adding test substance with concentration a d: cell viability upon adding test substance with concentration b e: intermediate value between maximum and minimum among cell viabilities upon adding test substances with different concentrations (a and b are concentrations crossing the cell viability e, and a>b is indicated).
The cell viability at each concentration was calculated by the following formula: Cell Viability (%)=a′/b′×100 a′: mean value of luminescence amount of wells to which test substance was added (n=6) b′: mean value of luminescence amount of wells to which test substance was not added (n=6) (n represents the number of evaluations performed per test substance concentration).
(In general: In ATP-based viability assays light output follows the ATP content of the culture.)

In the next series the test system is SK-BR-3 cells. Put plainly: Cellular Toxicity Test (2), CellTiter-Glo cell viability. Type of series: cell-based, human. The note with it: for IC50: Homo sapiens, 72 h, cultured 3 days, cell viability. On the procedure: SK-BR-3 cells (ATCC), which are human breast cancer cell line, were cultured in McCoy's 5A (GIBCO) containing 10% fetal bovine serum (MP Biomedicals) (hereinafter, referred to as the “culture medium” in this test). SK-BR-3 cells were prepared to be 2×10^6 cells/mL in the culture medium, added to a 96 well microplate for cell culturing in an amount of 50 μL for each well, and cultured at 37 degree under 5% CO2 overnight, and then, compounds of Examples or Comparative Example compound 4 times diluted with the culture medium in 8 stages were added to the microplate in an amount of 50 μL for each well. These were cultured at 37 degree under 5% CO2 for 3 days. After culturing, the microplate was taken out from the incubator, and was left at rest at room temperature for 10 minutes. 50 μL of CellTiter-Glo Luminescent Cell Viability Assay (Promega) was added to each well, and the resultant mixture was stirred. This mixture was incubated at a dark place for 20 minutes. Using a microplate luminometer, luminescence at each well was measured, thereby calculating the cell viability. The IC50 value was calculated in accordance with the method described in Test Example 1.

Series [2] is described as follows: Membrane Permeability Test, parallel artificial membrane permeability assay (PAMPA). Type of series: in vitro ADME. The following applies: pH 7.4, pH7.4, 37° C., read-out: Pe (pH7.4). As for the experimental part: By the parallel artificial membrane permeability assay (PAMPA), the membrane permeability of compounds of Examples was examined as follows: To the donor plate, System solution (pION inc.) and GIT Lipid-0 (pION inc.) were added in an amount of 200 μL and 4 μL for each well, respectively. To the acceptor plate, Acceptor Sink Buffer (pION inc.) was added in an amount of 200 μL. Both plates were superposed and incubated at 37° C. for 4 hours, and then, UVs in the solutions on the side of acceptor and on the side of donor were measured with an UV plate reader (190 to 500 nm). Compounds with poor UV absorption were measured by LC-MS. The permeability coefficient Pe (10^−6 cm/sec) of the drug was calculated by the following formula.
[formula] • ra=(VD/VA)Pa^(A-D)/Pa^(D-A)=rVPe^(A-D)/Pa^(D-A) • rV=(VD/VA) • VD=volume of doner well • VA=volume of acceptor well • t=permeation time • τ^SS=steady state time • R=retention • CD=CA=concentration in donor and acceptor well
In general terms: In PAMPA a lipid-coated filter parts donor from acceptor wells.

In series [3] the test system is Karpas-299 cells. Put plainly: Cellular Toxicity Test (1) for ADCs. Type of series: cell-based, human. The note with it: Karpas-299 (CD30 antigen-positive, HER2 antigen-negative cell line), 4 days. As for the experimental part:
Karpas-299 cells (ECACC), which are CD30 antigen-positive and HER2 antigen-negative, were cultured in RPMI 1640 (GIBCO) containing 10% fetal bovine serum (MP Biomedicals) (hereinafter, referred to as “culture medium A” in this test). In addition, SK-BR-3 cells (ATCC), which are CD30 antigen-negative and HER2 antigen-positive, were cultured in McCoy's 5A (GIBCO) containing 10% fetal bovine serum (MP Biomedicals) (hereinafter, referred to as “culture medium B” in this test). Karpas-299 cells and SK-BR-3 cells were prepared to be 2×10^6 cells/mL in culture medium A or culture medium B, and were added to a 96 well microplate for cell culturing in an amount of 50 μL for each well. After the addition, SK-BR-3 cells were cultured at 37 degree under 5% CO2 overnight. ADCs 4 times diluted with culture medium A or culture medium B in 8 stages were added to the microplate in an amount of 50 μL for each well, and Karpas-299 cells and SK-BR-3 cells were cultured at 37 degree under 5% CO2 for 4 days or 3 days, respectively. After culturing, the microplate was taken out from the incubator, and was left at rest at room temperature for 10 minutes. […] Using a microplate luminometer, luminescence was measured, thereby calculating the cell viability for each concentration of the ADC. The IC50 value was calculated in accordance with the method described in Test Example 1.

Series [4] relates to Karpas-299 cells. Put plainly: Cellular Toxicity Test (2) for ADCs, cell survival relative to brentuximab. The following applies: Karpas-299, 2000 ng/mL solution added, 4 days, relative to cells surviving brentuximab treatment. Type of series: cell-based, human. As for the experimental part: Karpas-299 cells were prepared to be 2×10^6 cells/mL in culture medium A, and were added to a 96 well microplate for cell culturing in an amount of 50 μL for each well. Brentuximab or Example ADCs, the concentration of which was prepared to be 2000 ng/mL with culture medium A, was added to the microplate in an amount of 50 μL for each well, and cultured at 37 degree under 5% CO2 for 4 days. After culturing, the microplate was taken out from the incubator, and was left at rest at room temperature for 10 minutes. To each well, 50 μL of CellTiter-Glo Luminescent Cell Viability Assay (Promega) was added, and the resultant mixture was stirred. This mixture was incubated at a dark place for 20 minutes, and luminescence was measured using a microplate luminometer, thereby determining the percentage of the number of cells that survived upon the treatment with Example ADCs relative to the number of cells that survived upon the treatment with brentuximab.

Another series relates to HL-60. Put plainly: Cellular Toxicity Test (3) for ADCs. It is filed as cell-based. The following applies: HL-60, treatment with 333 nM of ADC. As for the experimental part: In accordance with the method described in Test Example 3 or Test Example 7, cellular toxicities of Example ADCs were measured using the cell types shown in the following table. As an indicator for the cellular toxicity, IC50 or the cell survival rate upon the treatment with 333 nM of ADC was measured. However, for ADC 51, the cell survival rate upon the treatment with 26.6 nM of ADC51 was measured.

Regarding `CN[C@H](C(=O)N[C@H](C(=O)N(C)[C@H](/C=C(\C)C(=O)NCCCCNC(=O)CCCCCN1C(=O)C=CC1=O)C(C)C)C(C)(C)C)C(C)(C)c1cn(C)c2ccccc12` [Comparative Example compound, reference compound], in the series with Karpas-299 cells [1], the “cellular toxicity to Karpas-299 cells (in words)” value is on record as “strong cellular toxicity” and the IC50 came out at 19.1 nM. Besides, in the series on SK-BR-3 cells, the “cellular toxicity to SK-BR-3 cells (in words)” value is “strong cellular toxicity” and the midpoint of inhibition, the IC50, lay at 162 nM. For the same molecule, the Papp at 4 h in series [2] stood at 16.9 ×10⁻⁶ cm/s.
In the case of `CN[C@H](C(=O)N[C@H](C(=O)N(C)[C@H](/C=C(\C)C(=O)N[C@H](CCC(=O)NCCN1C(=O)C=CC1=O)C(=O)O)C(C)C)C(C)(C)C)C(C)(C)c1cn(C)c2ccccc12` [Example M1, (3S,6S,9S,10E,14R)-6-tert-Butyl-14-(3-{[2-(2,5-dioxo-2,5-dihydro-1H-pyrrol-1-yl)ethyl]amino}-3-oxopropyl)-8,11-dimethyl-3-[2-(1-methyl-1H-indol-3-yl)propan-2-yl]-4,7,12-trioxo-9-(propan-2-yl)-2,5,8,13-tetraazapentadec-10-en-15-oic Acid], the results for the half-inhibitory concentration (IC50) in the series on Karpas-299 cells [1] and in the series with SK-BR-3 cells were 726 nM and > 1000 nM, respectively. Also, the Papp at 4 h in series [2] is < 0.1 ×10⁻⁶ cm/s.
As for “Comparative Example 1: Brentuximab, a CD30 antigen-specific antibody, no modifying agent, average DAR 0”, the IC50 in the series with Karpas-299 cells [3] was > 6.6 nM. Besides, the “Cell survival rate (%)” value in the series with Karpas-299 cells [4] is listed as 100%.

B1: ADC54: ADC of Vadastuximab and M4, average DAR 5.3 (conjugate, chains of the INN, looked up)
VH: QVQLVQSGAEVKKPGASVKVSCKASGYTFTNYDINWVRQAPGQGLEWIGWIYPGDGSTKYNEKFKAKATLTADTSTSTAYMELRSLRSDDTAVYYCASGYEDAMDYWGQGTTVTVSS
VL: DIQMTQSPSSLSASVGDRVTINCKASQDINSYLSWFQQKPGKAPKTLIYRANRLVDGVPSRFSGSGSGQDYTLTISSLQPEDFATYYCLQYDEFPLTFGGGTKVEIK
modifications: drug-linker M4, DAR 5.3
As for B1, in the series on HL-60, the “Cell survival rate (%)” value is 68%.
